± gives the expanded uncertainty stated by the source.

The conditions of this data set: 101 kPa, Liquid, Pendant drop method.

For `CCCCn1cc[n+](C)c1.O=S(=O)([O-])C(F)(F)F` [1-butyl-3-methylimidazolium trifluoromethanesulfonate] + CCCCCCCC, the interfacial tension is, setting by setting: (293 K) 9.96 ± 0.12 mN/m; (298 K) 9.88 ± 0.12 mN/m; (303 K) 9.79 ± 0.12 mN/m; (308 K) 9.7 ± 0.12 mN/m; (313 K) 9.59 ± 0.12 mN/m.
In the same order, the values of `CCCC[n+]1ccn(C)c1.O=S(=O)([N-]S(=O)(=O)C(F)(F)F)C(F)(F)F` + CCCCCCCCCC are 9.43 ± 0.12 mN/m, 9.33 ± 0.12 mN/m, 9.21 ± 0.12 mN/m, 9.1 ± 0.12 mN/m and 8.99 ± 0.12 mN/m.
For the compound `CCCCCC[n+]1ccn(C)c1.O=S(=O)([N-]S(=O)(=O)C(F)(F)F)C(F)(F)F` + O, the interfacial tension came to 15.39 ± 0.13 mN/m (293 K); 14.82 ± 0.13 mN/m (298 K); 14.49 ± 0.13 mN/m (303 K); 14.17 ± 0.13 mN/m (308 K); 14.01 ± 0.12 mN/m (313 K); 13.78 ± 0.12 mN/m (318 K). Further, under “323 K”, the interfacial tension came out at 13.45 ± 0.12 mN/m.
Turning to `CCCCCCCCn1cc[n+](C)c1.O=S(=O)([N-]S(=O)(=O)C(F)(F)F)C(F)(F)F` + CCCCCCCC, the interfacial tension is recorded as 3.76 ± 0.1 mN/m (293 K); 3.69 ± 0.1 mN/m (298 K); 3.6 ± 0.1 mN/m (303 K); 3.49 ± 0.1 mN/m (308 K); 3.38 ± 0.1 mN/m (313 K).
Take `CCn1cc[n+](C)c1.O=S(=O)([N-]S(=O)(=O)C(F)(F)F)C(F)(F)F` + CCCCCCCC: the interfacial tension (293 K) is 12.23 ± 0.13 mN/m; the interfacial tension (298 K) was found to be 12.1 ± 0.13 mN/m; the interfacial tension (303 K) amounted to 11.84 ± 0.12 mN/m; the interfacial tension (308 K) stood at 11.7 ± 0.12 mN/m; the interfacial tension (313 K) is 11.43 ± 0.12 mN/m.
On to `CCn1cc[n+](C)c1.O=S(=O)([N-]S(=O)(=O)C(F)(F)F)C(F)(F)F` + CCCCCC, for which the interfacial tension (293 K) was found to be 11.36 ± 0.22 mN/m; the interfacial tension (298 K) is recorded as 11.23 ± 0.22 mN/m; the interfacial tension (303 K) stood at 11.12 ± 0.22 mN/m; the interfacial tension (308 K) turned out to be 10.98 ± 0.22 mN/m; the interfacial tension (313 K) is on record as 10.82 ± 0.21 mN/m.
For `CCCCCC[n+]1ccn(C)c1.O=S(=O)([N-]S(=O)(=O)C(F)(F)F)C(F)(F)F` + CCCCCC, the interfacial tension by setting is: (293 K) 5.19 ± 0.14 mN/m; (298 K) 5.1 ± 0.13 mN/m; (303 K) 4.99 ± 0.13 mN/m; (308 K) 4.88 ± 0.13 mN/m; (313 K) 4.79 ± 0.13 mN/m.
Regarding `CCCCCC[n+]1ccn(C)c1.O=S(=O)([N-]S(=O)(=O)C(F)(F)F)C(F)(F)F` + CCCCCCCCCC, the interfacial tension runs as follows: (293 K) 6.59 ± 0.11 mN/m; (298 K) 6.47 ± 0.11 mN/m; (303 K) 6.36 ± 0.11 mN/m; (308 K) 6.24 ± 0.11 mN/m; (313 K) 6.11 ± 0.11 mN/m.
As to `CCCCn1cc[n+](C)c1.O=S(=O)([O-])C(F)(F)F` [1-butyl-3-methylimidazolium trifluoromethanesulfonate] + CCCCCCCCCC, the interfacial tension is recorded as 10.79 ± 0.13 mN/m (293 K); 10.67 ± 0.13 mN/m (298 K); 10.56 ± 0.13 mN/m (303 K); 10.44 ± 0.13 mN/m (308 K); 10.31 ± 0.13 mN/m (313 K).
In the same order, the values of `CCCCCCCCn1cc[n+](C)c1.O=S(=O)([N-]S(=O)(=O)C(F)(F)F)C(F)(F)F` + CCCCCC are 3.12 ± 0.11 mN/m, 3.07 ± 0.11 mN/m, 3.02 ± 0.11 mN/m, 2.95 ± 0.11 mN/m and 2.88 ± 0.11 mN/m.

The record behind these values is the NIST ThermoML archive (doi:10.1016/j.fluid.2010.02.022).
